Source: ChEMBL document CHEMBL3603818, “Hedgehog inhibitors from Withania somnifera” (Bioorg Med Chem Lett, 2015)
Values belong to the compound of their own block, whether it stands above or below them. The source made the active and inactive calls. The calls are words filed in the database; no cut-off is given here.

Experiments:
[1] = Cytotoxicity against human PANC1 cells after 24 hrs by FMCA; format: functional, cell-based; settings: PANC-1, 24 h
DU-145 = assay: Cytotoxicity against human DU145 cells after 24 hrs by FMCA; format: functional, cell-based; settings: DU-145, 24 h
[2] = Cytotoxicity against mouse C3H10T1/2 cells after 24 hrs by FMCA; format: cell-based; settings: C3H 10T1/2, 24 h
[3] = molecular target: T1, Zinc finger protein GLI1 (Homo sapiens) (UniProt P08151); assay: Inhibition of GST-GLI1 (unknown origin) interaction with DNA assessed as reduction of protein-DNA complex level at 100 uM after 20 mins by electrophoretic mobility shift assay
T1 sequence (whole entry): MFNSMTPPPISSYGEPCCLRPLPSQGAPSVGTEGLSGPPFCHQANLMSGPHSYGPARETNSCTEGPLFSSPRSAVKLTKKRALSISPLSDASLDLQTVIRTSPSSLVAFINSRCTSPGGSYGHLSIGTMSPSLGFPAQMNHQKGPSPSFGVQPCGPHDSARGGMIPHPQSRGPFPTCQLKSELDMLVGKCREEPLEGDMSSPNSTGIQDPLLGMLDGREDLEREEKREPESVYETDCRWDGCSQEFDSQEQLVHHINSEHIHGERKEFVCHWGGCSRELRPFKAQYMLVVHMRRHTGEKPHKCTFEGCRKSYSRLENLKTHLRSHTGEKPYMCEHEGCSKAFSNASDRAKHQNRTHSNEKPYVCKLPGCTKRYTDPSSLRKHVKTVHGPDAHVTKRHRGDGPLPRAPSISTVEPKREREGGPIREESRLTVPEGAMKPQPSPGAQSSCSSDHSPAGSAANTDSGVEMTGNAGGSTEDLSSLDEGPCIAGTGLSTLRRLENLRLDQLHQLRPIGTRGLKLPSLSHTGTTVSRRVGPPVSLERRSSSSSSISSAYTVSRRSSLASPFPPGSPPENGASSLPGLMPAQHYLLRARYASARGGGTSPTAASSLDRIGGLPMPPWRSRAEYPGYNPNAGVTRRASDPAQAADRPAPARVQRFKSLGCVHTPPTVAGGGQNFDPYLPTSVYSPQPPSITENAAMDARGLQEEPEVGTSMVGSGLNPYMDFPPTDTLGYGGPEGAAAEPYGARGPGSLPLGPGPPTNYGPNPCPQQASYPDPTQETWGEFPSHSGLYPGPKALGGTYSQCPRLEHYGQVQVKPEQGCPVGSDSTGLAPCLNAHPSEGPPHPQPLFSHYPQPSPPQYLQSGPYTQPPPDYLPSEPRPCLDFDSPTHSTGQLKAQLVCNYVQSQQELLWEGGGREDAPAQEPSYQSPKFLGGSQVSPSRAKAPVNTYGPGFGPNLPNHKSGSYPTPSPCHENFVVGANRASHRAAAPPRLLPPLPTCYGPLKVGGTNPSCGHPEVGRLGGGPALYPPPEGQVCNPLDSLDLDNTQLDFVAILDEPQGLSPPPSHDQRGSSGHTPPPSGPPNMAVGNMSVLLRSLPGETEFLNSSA

MCF7 = assay: Cytotoxicity against human MCF7 cells after 24 hrs by FMCA; format: functional, cell-based; settings: MCF7, 24 h
PANC-1 [4] = assay: Inhibition of PTCH expression in human PANC1 cells at 1 uM after 12 hrs by Western blotting; format: functional, cell-based
HaCaT [5] = assay: Inhibition of BCL-2 expression in human HaCaT cells expressing GLI1 at 1.5 uM after 12 hrs by Western blotting; format: functional, cell-based
[6] = Inhibition of hedgehog/GLI1-mediated transcriptional activity in human HaCaT cells after 12 hrs by luciferase assay; format: cell-based
HaCaT [7] = assay: Inhibition of PTCH expression in human HaCaT cells expressing GLI1 at 1.5 uM after 12 hrs by Western blotting; format: functional, cell-based
PANC-1 [8] = assay: Inhibition of BCL-2 expression in human PANC1 cells at 1 uM after 12 hrs by Western blotting; format: functional, cell-based
PANC-1 [9] = assay: Inhibition of PTCH expression in human PANC1 cells at 5 uM after 12 hrs by Western blotting; format: functional, cell-based
PANC-1 [10] = assay: Inhibition of BCL-2 expression in human PANC1 cells at 5 uM after 12 hrs by Western blotting; format: functional, cell-based

- inhibition [3]: Active
SMILES: CC1=C(CO)C(=O)O[C@@H]([C@@H](C)[C@H]2CC[C@H]3[C@@H]4C[C@H]5O[C@]56[C@@H](O)C=CC(=O)[C@]6(C)[C@H]4CC[C@]23C)C1 [WITHAFERIN A]
- IC50 [1]: 1.6 µM
- IC50 (DU-145): 2.5 µM
- IC50 [2]: 4.9 µM
- IC50 (MCF7): 6.3 µM
- inhibition (PANC-1 [4]): Active
- inhibition (HaCaT [5]): Active
- IC50 [6]: 0.5 µM
- inhibition (HaCaT [7]): Active
- inhibition (PANC-1 [8]): Active

SMILES: CC1=C(CO)C(=O)O[C@@H]([C@@H](C)[C@H]2CC[C@H]3[C@@H]4C[C@H]5O[C@]56[C@@H](O)CCC(=O)[C@]6(C)[C@H]4CC[C@]23C)C1
- IC50 [1]: > 25 µM
- IC50 (DU-145): > 25 µM
- IC50 [2]: > 25 µM
- inhibition [3]: Active
- IC50 (MCF7): > 25 µM
- IC50 [6]: 14.8 µM

SMILES: CC1=C(CO)C(=O)O[C@@H]([C@@H](C)[C@H]2CC[C@H]3[C@@H]4CC=C5[C@@H](O)C=CC(=O)[C@]5(C)[C@H]4CC[C@]23C)C1
- IC50 [1]: 11.9 µM
- IC50 (DU-145): 10.6 µM
- IC50 [2]: > 25 µM
- IC50 (MCF7): 22.6 µM
- IC50 [6]: 1.8 µM

SMILES: CC1=C(CO)C(=O)O[C@@H]([C@@H](C)[C@H]2CC[C@H]3[C@@H]4C[C@H]5O[C@]56[C@@H](O)[C@@H](OS(=O)(=O)O)CC(=O)[C@]6(C)[C@H]4CC[C@]23C)C1
- IC50 [1]: 14.8 µM
- IC50 (DU-145): 21.7 µM
- IC50 [2]: 21 µM
- IC50 (MCF7): 17.9 µM
- IC50 [6]: 2.2 µM

SMILES: CC1=C(C)C(=O)O[C@@H]([C@@H](C)[C@H]2CC[C@H]3[C@@H]4C[C@H]5O[C@]56[C@@H](O)C=CC(=O)[C@]6(C)[C@H]4CC[C@]23C)C1
- IC50 [1]: 1.1 µM
- IC50 (DU-145): 1.8 µM
- IC50 [2]: 4.1 µM
- IC50 (MCF7): 2.8 µM
- inhibition (PANC-1 [9]): Active
- inhibition (PANC-1 [10]): Active
- inhibition (HaCaT [5]): Active
- IC50 [6]: 0.6 µM
- inhibition (HaCaT [7]): Active

SMILES: CO[C@H]1CC(=O)[C@]2(C)[C@H]3CC[C@]4(C)[C@@H]([C@H](C)[C@H]5CC(C)=C(CO)C(=O)O5)CC[C@H]4[C@@H]3C[C@H]3O[C@]32[C@H]1O
- IC50 [1]: > 25 µM
- IC50 (DU-145): > 25 µM
- IC50 [2]: > 25 µM
- IC50 (MCF7): > 25 µM
- IC50 [6]: > 25 µM
